Tests used:
Assay type in all cases: in vivo
[1] = tested on: Aedes aegypti strain MONHEIM; test: Aedes aegypti test (AEDSAE surface treatment & contact assay); conditions: 24 hours after contact, read-out: efficacy (mortality); for mortality at 4 mg/m2: surface concentration 4 mg/m^2, 30 minutes exposure; for mortality at 20 mg/m2: surface concentration 20 mg/m^2, 30 minutes exposure
In short: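 Compound dissolved in acetone (2 mg/ml) with 2000 ppm rapeseed oil methyl ester, then dried onto a glazed tile. Adult A. aegypti (MONHEIM strain) exposed to the surface for 30 min. Percent mortality scored 24 h after contact.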

[2] = tested on: Blattella germanica strain PAULINIA; test: Blattella germanica test (BLTTGE surface treatment & contact assay); conditions: surface concentration 20 mg/m^2, 30 minutes exposure, 24 hours after contact, read-out: efficacy (mortality)
Procedure: Blattella germanica Test (BLTTGE Surface Treatment & Contact Assay)
(§1) Solvent: Aceton+2000 ppm rapeseed oil methyl ester (RME)
(§2) In order to produce a sufficient, active ingredient containing solution it is necessary to solve the test compound in the solvent-mix (acetone at 2 mg/ml/RME 2000 ppm). This solution is pipetted onto a glazed tile and after evaporation of the acetone, adult animals of the species Blattella germanica strain PAULINIA are placed onto the dried surface. The exposure time is 30 minutes. Mortality in percent (%) is determined 24 hours after contact of the insects to the treated surface. 100% mortality means that all tested insects are dead, whereas 0% means that no insect died.

[3] = tested on: Musca domestica strain WHO-N; test: Musca domestica test (MUSCDO surface treatment & contact assay); conditions: 24 hours after contact, read-out: efficacy (mortality); for mortality at 20 mg/m2: surface concentration 20 mg/m^2, 30 minutes exposure
Procedure: Musca domestica Test (MUSCDO Surface Treatment & Contact Assay)
as §1
as §2, with “flies” for “animals”, “Musca domestica” for “Blattella germanica”, “WHO-N” for “PAULINIA”

[4] = tested on: green peach aphid (Myzus persicae); test: Myzus persicae spray test; conditions: foliar, 120 h, after 5 days, Chinese cabbage leaf disks
In short: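 Chinese cabbage leaf disks infested with all instars of Myzus persicae were sprayed with compound formulated in acetone/dimethylformamide and diluted in water containing 1000 ppm emulsifier. Percent mortality was scored after 5 days.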

[5] = tested on: adult engorged female ticks (Rhipicephalus microplus); test: Rhipicephalus (Boophilus) microplus injection test; conditions: 168 h, after 7 days, read-out: efficacy (infertile eggs); for pest or weed control at 0.004 mg: 4 μg/animal
In short: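 Five adult engorged female ticks injected into the abdomen with 1 μL compound solution in DMSO, then held in a climate chamber. Fertile egg deposition assessed after 7 days, unclear eggs kept until hatching (about 42 days); efficacy 100% = all eggs infertile, 0% = all fertile.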

[6] = tested on: cattle ticks (Rhipicephalus microplus) strain Parkhurst, SP-resistant; test: Rhipicephalus (Boophilus) microplus dip test; conditions: 100 ppm, after 7 days
Procedure: Rhipicephalus (Boophilus) microplus—Dip Test
Test animal: cattle ticks (Rhipicephalus microplus) strain Parkhurst, SP-resistant
Solvent: dimethyl sulfoxide
To produce a suitable preparation of active compound, 10 mg of active compound are dissolved in 0.5 mL solvent, and the concentrate is diluted with water to the desired concentration.
This compound solution is pipetted into tubes. 8-10 engorged, adult, female cattle ticks (Rhipicephalus microplus) are placed in perforated tubes. These tubes are immersed in the aqueous compound solution until the ticks are completely moistened. After the liquid has drained off, the ticks are transferred to a filter paper in a plastic tray and stored in a climate chamber.
After 7 days egg deposition of fertile eggs is monitored. Eggs where fertility is not visible are stored in a climate chamber till hatching after about 42 days. An efficacy of 100% means all eggs are infertile; 0% means all eggs are fertile.

Compound	mortality at 4 mg/m2 [1]	mortality at 20 mg/m2 [1]	mortality at 20 mg/m2 [2]	mortality at 4 mg/m2 ([3]; surface concentration 4 mg/m^2, 30 minutes exposure)	mortality at 20 mg/m2 [3]	mortality at 100 g/ha [4]	pest or weed control at 0.004 mg [5]	pest or weed control at 0.02 mg ([5]; 20 μg/animal)	efficacy (infertile eggs) [6]
CC(NC(=O)c1cc(C(F)(F)F)cc(C(F)(F)F)c1)c1nc(I)nn1-c1ncccn1 (centres unmarked) [Example I-021]	80 to 100%	80 to 100%	80 to 100%	80 to 100%	80 to 100%	90%			
CC(NC(=O)c1cc(C(F)(F)F)cc(C(F)(F)F)c1)c1nc(Br)nn1-c1ncccn1 (centres unmarked) [Example I-010]		80 to 100%			80 to 100%	90%	100%		
CC(NC(=O)c1cc(C(F)(F)F)cc(C(F)(F)F)c1)c1nc(Cl)nn1-c1ncccn1 (centres unmarked) [Example I-002]	80 to 100%	80 to 100%	80 to 100%		80 to 100%		100%	100%	80%
